Source: ChEMBL document CHEMBL1123025, “Acylmorphinans. A novel class of potent analgesic agents” (J Med Chem, 1985)

Experiments:
Opioid receptor = Opioid receptor (Rattus norvegicus, UniProt P33533+P34975+P33535); experiment: 50% Inhibition of stereospecific [3H]-naltrexone (10e-9 M) binding towards opiate receptor in rat brain homogenate; type: tissue-based
Mus musculus [1] = experiment: Analgesic activity in mice after subcutaneous administration in tail-flicking assay; activity value ranges from 3.0 - 5.4; type: functional; settings: sc
Mus musculus [2] = experiment: Analgesic activity in mice after subcutaneous administration in writhing assay; 1.21-3.91; type: functional; settings: sc
Mus musculus [3] = experiment: Analgesic activity in mice after oral administration in writhing assay; 13.71-42.00; type: functional
Mus musculus [4] = experiment: Analgesic activity in mice after subcutaneous administration in writhing assay; 0.06-0.22; type: functional; settings: sc
Mus musculus [5] = experiment: Analgesic activity in mice after oral administration in writhing assay; 0.70-2.80; type: functional
Mus musculus [6] = experiment: Analgesic activity in mice after oral administration in tail-flicking assay; 7.22-10.25; type: functional
Mus musculus [7] = species: Mus musculus; experiment: animal or person; settings: sc
Description: Analgesic activity in mice after subcutaneous administration in writhing assay; 0.26-0.83

`CC(O)c1ccc2c(c1)[C@@]13CCCC[C@H]1[C@@H](C2)N(C)CC3.Cl` (some centres not stated) showed an IC50 (Opioid receptor) of 14 nM.
For `CC(=O)c1ccc2c(c1)[C@@]13CCCC[C@H]1[C@@H](C2)N(CC1CC1)CC3.Cl`, the IC50 (Opioid receptor) was 70 nM.
`CC(=O)c1ccc2c(c1)C[C@@H]1[C@@H]3CCCC[C@]23CCN1C` was tested, and the IC50 (Opioid receptor) was 13000 nM.
`CC(=O)c1ccc2c(c1)[C@@]13CCCC[C@H]1[C@@H](C2)N(C)CC3` was tested, and the ED50 (Mus musculus [1]) was 4 mg/kg and the IC50 (Opioid receptor) was 210 nM.
`COc1ccc2c3c1O[C@H]1[C@@H](O)C=C[C@H]4[C@@H](C2)N(C)CC[C@@]341.COc1ccc2c3c1O[C@H]1[C@@H](O)C=C[C@H]4[C@@H](C2)N(C)CC[C@@]341.O.O=P(O)(O)O.O=P(O)(O)O` [CODEINE PHOSPHATE] showed an ED50 (Mus musculus [2]) of 2.3 mg/kg and an ED50 (Mus musculus [3]) of 24 mg/kg.
Compound `CN1CC[C@]23CCCC[C@H]2[C@H]1Cc1ccc(O)cc13` [LEVORPHANOL] has an ED50 (Mus musculus [4]) of 0.11 mg/kg, an ED50 (Mus musculus [5]) of 1.4 mg/kg and an ED50 (Mus musculus [6]) of 8.5 mg/kg. The IC50 (Opioid receptor) was 0.004 nM.
In the case of `CN1CC[C@]23c4c5ccc(O)c4O[C@H]2[C@@H](O)C=C[C@H]3[C@H]1C5` [MORPHINE], the ED50 (Mus musculus [7]) was 0.46 mg/kg.
